The record followed here is PMC10824489 (Journal of medicinal chemistry, 2023).

The target of series [1] is RPE65 (Bos taurus, UniProt Q28175). In words: RPE65 activity assay in vitro. Format: biochemical, bovine. The note with it: for inhibition of RPE65 in vitro: concentration range 0.1-50 μM.
Series [2] deals with T1, RPE65 (Mus musculus, UniProt Q91ZQ5).
T1 sequence (Q91ZQ5 1-533): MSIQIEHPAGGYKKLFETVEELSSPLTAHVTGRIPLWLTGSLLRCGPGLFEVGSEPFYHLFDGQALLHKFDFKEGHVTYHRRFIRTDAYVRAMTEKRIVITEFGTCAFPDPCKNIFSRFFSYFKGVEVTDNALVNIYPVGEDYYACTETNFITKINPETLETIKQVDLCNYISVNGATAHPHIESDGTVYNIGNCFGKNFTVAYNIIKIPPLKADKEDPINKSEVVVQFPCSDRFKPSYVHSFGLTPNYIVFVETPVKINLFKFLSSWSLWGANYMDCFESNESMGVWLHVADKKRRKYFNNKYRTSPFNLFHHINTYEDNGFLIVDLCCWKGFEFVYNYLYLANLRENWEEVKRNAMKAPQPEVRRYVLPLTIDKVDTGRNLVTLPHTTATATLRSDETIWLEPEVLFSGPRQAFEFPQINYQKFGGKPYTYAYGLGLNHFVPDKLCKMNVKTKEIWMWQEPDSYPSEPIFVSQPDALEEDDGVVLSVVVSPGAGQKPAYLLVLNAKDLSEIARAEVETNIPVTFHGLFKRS
Conditions: 10 mg/kg IP; for RPE65 inhibition in vivo (in words): BALB/cJ mice; for 11cRAL level in eye / RE level in eye: four hours of dark adaptation after light exposure, mean ± SD, n=3.

A further series addresses T2, VAP-1 (Mus musculus, UniProt O70423).
T2 sequence (O70423 1-765): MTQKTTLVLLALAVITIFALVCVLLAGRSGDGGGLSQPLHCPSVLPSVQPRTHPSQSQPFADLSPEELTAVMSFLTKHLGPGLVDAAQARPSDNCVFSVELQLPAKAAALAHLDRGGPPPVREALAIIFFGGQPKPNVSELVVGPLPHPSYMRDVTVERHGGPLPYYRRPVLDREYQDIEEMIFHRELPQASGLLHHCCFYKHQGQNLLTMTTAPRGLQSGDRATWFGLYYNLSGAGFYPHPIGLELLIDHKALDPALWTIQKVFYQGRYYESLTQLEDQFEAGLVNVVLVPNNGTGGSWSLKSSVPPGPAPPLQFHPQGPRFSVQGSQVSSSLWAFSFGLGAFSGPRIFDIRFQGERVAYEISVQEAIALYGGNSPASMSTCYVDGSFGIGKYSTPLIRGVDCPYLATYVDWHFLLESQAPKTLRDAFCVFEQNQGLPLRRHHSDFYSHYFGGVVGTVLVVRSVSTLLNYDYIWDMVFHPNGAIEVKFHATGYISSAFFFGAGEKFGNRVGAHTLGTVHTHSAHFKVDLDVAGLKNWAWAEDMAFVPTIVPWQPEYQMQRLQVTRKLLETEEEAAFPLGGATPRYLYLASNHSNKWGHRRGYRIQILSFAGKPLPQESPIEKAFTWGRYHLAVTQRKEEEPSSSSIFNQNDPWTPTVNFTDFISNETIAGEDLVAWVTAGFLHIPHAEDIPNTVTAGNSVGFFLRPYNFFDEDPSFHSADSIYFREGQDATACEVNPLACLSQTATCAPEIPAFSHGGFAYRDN
Nature of the series: VAP-1 oxidation assay in mouse aorta homogenates. Conditions: for Concentration of 16e in mouse aorta homogenates: substrate 16e 100 μM.

In the next series the test system is CYP-450 enzymes. In words: Liver microsomes assay. (Liver microsomes are a subcellular fraction often used to study metabolism.)
A further series in a line: in vivo. The note with it: C57BL/6J, mouse, serum, intraperitoneal, 10 mg/kg.

“Also recorded” adds a separate entry of the source.

RPE65 (Bos taurus, UniProt Q28175), sequence (Q28175 whole entry): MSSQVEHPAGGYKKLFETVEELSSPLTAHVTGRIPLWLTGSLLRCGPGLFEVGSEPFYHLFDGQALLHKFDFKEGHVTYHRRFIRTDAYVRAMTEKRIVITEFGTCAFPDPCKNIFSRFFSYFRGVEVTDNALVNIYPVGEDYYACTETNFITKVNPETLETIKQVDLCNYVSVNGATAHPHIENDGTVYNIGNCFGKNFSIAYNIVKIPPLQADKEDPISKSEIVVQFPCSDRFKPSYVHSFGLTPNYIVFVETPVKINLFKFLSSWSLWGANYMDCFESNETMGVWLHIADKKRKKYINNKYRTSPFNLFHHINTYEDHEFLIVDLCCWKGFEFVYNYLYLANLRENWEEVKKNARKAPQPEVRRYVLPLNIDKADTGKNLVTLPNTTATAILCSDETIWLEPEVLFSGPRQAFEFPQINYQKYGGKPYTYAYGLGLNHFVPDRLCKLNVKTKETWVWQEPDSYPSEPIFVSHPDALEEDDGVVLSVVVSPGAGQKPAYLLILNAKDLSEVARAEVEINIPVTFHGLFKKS

In the case of `NC(CO)Cc1cccc(OCC2CCCCC2)c1` (stereo not shown) [6b, 2-Amino-3-(3-(cyclohexylmethoxy)phenyl)propan-1-ol], the “inhibition of RPE65 in vitro” value against RPE65 [1] was “no inhibition”.

Regarding `NC(CCO)c1cccc(OCC2CCCCC2)c1` (stereo not shown) [6a, 3-Amino-3-(3-(cyclohexylmethoxy)phenyl)propan-1-ol], at RPE65 [1], the “inhibition of RPE65 in vitro” value is recorded as “lack of inhibitory activity; also recorded: no inhibition”.

For `CC(CN)Cc1cccc(OCC2CCCCC2)c1` (stereo not shown) [16c, (3-(Cyclohexylmethoxy)phenyl)-2-methylpropan-1-amine], at RPE65 [2], the “RPE65 inhibition in vivo (in words)” value was “minor RPE65 inhibition”, the “11cRAL level in eye” value is given as 370.5 ± 9.1 pmol/eye and the “RE level in eye” value is 123.9 ± 36.4 pmol/eye.

Regarding `CC(CCN)c1cccc(OCC2CCCCC2)c1` (stereo not shown) [16b, 3-(3-(Cyclohexylmethoxy)phenyl)butan-1-amine], on RPE65 [2], the “RPE65 inhibition in vivo (in words)” value is listed as “minor RPE65 inhibition”, the “11cRAL level in eye” value was found to be 253.5 ± 9.0 pmol/eye and the “RE level in eye” value is 85.6 ± 12.7 pmol/eye. At RPE65 [2] (all animals, even 24 hours after treatment), the non-specific toxicity observation result is “impaired body movement”.

In the case of `O=CC=Cc1cccc(OCC2CCCCC2)c1` [ACU-5201], the “Concentration of deaminated product ACU-5201 in mouse aorta homogenates” value on VAP-1 (formed from substrate 3a, time 0) was found to be 0.00 ± 0.00 µM; on VAP-1 (formed from substrate 3a, time 1), 19.71 ± 0.29 µM; on VAP-1 (formed from substrate 3a, time 4), 54.81 ± 6.38 µM; on VAP-1 (formed from substrate 16e, time 1), 0.48 ± 0.68 µM; at VAP-1 (formed from substrate 16e, time 4), 3.76 ± 0.29 µM.

`NCCc1cccc(OCC2CCCCC2)c1` [11b, 2-(3-(Cyclohexylmethoxy)phenyl)ethan-1-amine]: the “RPE65 inhibition in vivo (in words)” value at RPE65 [2] is on record as “did not display hallmarks of inhibited RPE65 activity”. Further, the “potency towards RPE65 relative to amine 11a” value on RPE65 [1] (ratio of IC50 values) came out at 7.6 times.

On to `CNCCC(O)c1cccc(OCC2CCCCC2)c1` (stereo not shown) [16e, 1-(3-(Cyclohexylmethoxy)phenyl)-3-(methylamino)propan-1-ol], for which, in the series with CYP-450 enzymes (Cint ratio), the “hepatic clearance relative to 3a” value was found to be 5.5 times. The “rate of liver metabolism relative to 3a” value with CYP-450 enzymes (Vmax ratio) is listed as 1.7 times. For the same compound, in the series with CYP-450 enzymes (one-hour exposure, 200 μM), the “demethylation to 3a in liver microsomes” value was “minor amount of demethylation”. The “Concentration of 16e in mouse aorta homogenates” value was 100.32 ± 0.95 µM on VAP-1 (time 0) and 101.20 ± 0.89 µM at VAP-1 (time 1). Besides, the “11cRAL per eye as % of the dark adapted (DA) level” value at RPE65 [2] (24 hours post treatment) stood at 53%. Further, the “RPE65 inhibition in vivo (in words)” value on RPE65 [2] is “potent RPE65 inhibition”. This compound also showed a concentration at 24 h in “in vivo” of 0 nM.

`NC(CO)Cc1ccc(OCC2CCCCC2)cc1` (stereo not shown) [6c, 2-Amino-3-(4-(cyclohexylmethoxy)phenyl)propan-1-ol]: the “inhibition of RPE65 in vitro” value on RPE65 [1] is reported as “lack of dose-response relationship”.
